Data: ChEMBL document CHEMBL5724914, “Linking interpersonal differences in gut microbiota composition and drug biotransformation activity” (2024)

Assays:
[1] = human gut metagenome, 24 h, 2 µM
[2] = (§1) The drug is tested on WLS-090 corresponding to human gut metagenome with ENA study accession number: PRJEB37062 and ENA sample accession number: ERS12561753 for biotransformation under anaerobic condition. The drug concentrations were measured over 9 timepoints collected between 0 and 24 hours of incubation by liquid-chromatography-coupled mass spectrometry (LC–MS); conditions: 2 µM
[3] = human gut metagenome, 24 h, 2 µM; remark: listed apart in the source
[4] = as §1, with “Z-020” for “WLS-090”, “rabbit” for “human”, “ERS12561819” for “ERS12561753”; conditions: 2 µM
[5] = as §1, with “Z-011” for “WLS-090”, “mouse” for “human”, “ERS12561811” for “ERS12561753”; conditions: 2 µM
[6] = as §1, with “WLS-073” for “WLS-090”, “ERS12561749” for “ERS12561753”; conditions: 2 µM
[7] = as §1, with “WLS-170” for “WLS-090”, “ERS12561762” for “ERS12561753”; conditions: 2 µM
[8] = human gut metagenome, 24 h, 2 µM; remark: listed apart in the source
[9] = as §1, with “Z-014” for “WLS-090”, “rat” for “human”, “ERS12561814” for “ERS12561753”; conditions: 2 µM
Further: call rule not given here.

SMILES | Bacterial Biotransformation [1] | Bacterial Biotransformation [2] | Bacterial Biotransformation [3] | Bacterial Biotransformation [4] | Bacterial Biotransformation [5] | Bacterial Biotransformation [6] | Bacterial Biotransformation [7] | Bacterial Biotransformation [8] | Bacterial Biotransformation [9]
CCOC(=O)[C@H](CCc1ccccc1)N[C@H]1CCc2ccccc2N(CC(=O)O)C1=O [BENAZEPRIL] | Compound metabolized | Compound metabolized | Compound metabolized | Compound metabolized | Compound metabolized | Compound metabolized | Compound metabolized | Compound metabolized | Compound NOT metabolized
NS(=O)(=O)c1cc2c(cc1Cl)N=C(CSCc1ccccc1)NS2(=O)=O [BENZTHIAZIDE] | Compound NOT metabolized | Compound NOT metabolized | Compound NOT metabolized | Compound NOT metabolized | Compound NOT metabolized | Compound NOT metabolized | Compound NOT metabolized | Compound NOT metabolized | Compound NOT metabolized
CC(C)NCC(O)COc1ccc(COCCOC(C)C)cc1.CC(C)NCC(O)COc1ccc(COCCOC(C)C)cc1.O=C(O)/C=C/C(=O)O (stereo unspecified) [BISOPROLOL FUMARATE] | Compound metabolized | Compound metabolized | Compound NOT metabolized | Compound NOT metabolized | Compound metabolized | Compound NOT metabolized | Compound metabolized | Compound NOT metabolized | Compound NOT metabolized
CCCCCOC(=O)Nc1nc(=O)n([C@@H]2O[C@H](C)[C@@H](O)[C@H]2O)cc1F [CAPECITABINE] | Compound metabolized | Compound metabolized | Compound metabolized | Compound metabolized | Compound metabolized | Compound metabolized | Compound metabolized | Compound metabolized | Compound NOT metabolized
Cc1ccc(-c2cc(C(F)(F)F)nn2-c2ccc(S(N)(=O)=O)cc2)cc1 [CELECOXIB] | Compound metabolized | Compound NOT metabolized | Compound NOT metabolized | Compound NOT metabolized | Compound NOT metabolized | Compound metabolized | Compound NOT metabolized | Compound metabolized | Compound NOT metabolized
CN1C(=O)CCS(=O)(=O)C1c1ccc(Cl)cc1 (stereo unspecified) [CHLORMEZANONE] | Compound NOT metabolized | Compound metabolized | Compound NOT metabolized | Compound NOT metabolized | Compound NOT metabolized | Compound NOT metabolized | Compound metabolized | Compound NOT metabolized | Compound NOT metabolized
Clc1ccc(Cn2c(CN3CCCC3)nc3ccccc32)cc1 [CLEMIZOLE] | Compound metabolized | Compound metabolized | Compound metabolized | Compound NOT metabolized | Compound NOT metabolized | Compound NOT metabolized | Compound metabolized | Compound metabolized | Compound NOT metabolized
CN1CCN(C2=Nc3cc(Cl)ccc3Nc3ccccc32)CC1 [CLOZAPINE] | Compound metabolized | Compound metabolized | Compound NOT metabolized | Compound NOT metabolized | Compound NOT metabolized | Compound NOT metabolized | Compound metabolized | Compound metabolized | Compound NOT metabolized
COc1cc2c(c(OC)c1OC)-c1ccc(OC)c(=O)cc1[C@@H](NC(C)=O)CC2 [COLCHICINE] | Compound metabolized | Compound NOT metabolized | Compound metabolized | Compound NOT metabolized | Compound NOT metabolized | Compound metabolized | Compound metabolized | Compound NOT metabolized | Compound NOT metabolized
CC(=O)OCC(=O)[C@@]12N=C(C)O[C@@H]1C[C@H]1[C@@H]3CCC4=CC(=O)C=C[C@]4(C)[C@H]3[C@@H](O)C[C@@]12C [DEFLAZACORT] | Compound metabolized | Compound metabolized | Compound metabolized | Compound metabolized | Compound metabolized | Compound metabolized | Compound metabolized | Compound metabolized | Compound metabolized
CN(C)CC(c1ccc(O)cc1)C1(O)CCCCC1.O=C(O)CCC(=O)O (stereo unspecified) [DESVENLAFAXINE SUCCINATE] | Compound NOT metabolized | Compound NOT metabolized | Compound NOT metabolized | Compound NOT metabolized | Compound NOT metabolized | Compound NOT metabolized | Compound NOT metabolized | Compound NOT metabolized | Compound NOT metabolized
CN1CCN(C(=O)O[C@H]2c3nccnc3C(=O)N2c2ccc(Cl)cn2)CC1 [ESZOPICLONE] | Compound NOT metabolized | Compound NOT metabolized | Compound NOT metabolized | Compound NOT metabolized | Compound NOT metabolized | Compound NOT metabolized | Compound NOT metabolized | Compound NOT metabolized | Compound NOT metabolized
O=C1[C@H](CC[C@H](O)c2ccc(F)cc2)[C@@H](c2ccc(O)cc2)N1c1ccc(F)cc1 [EZETIMIBE] | Compound metabolized | Compound metabolized | Compound NOT metabolized | Compound NOT metabolized | Compound NOT metabolized | Compound metabolized | Compound metabolized | Compound metabolized | Compound NOT metabolized
CC(C)OC(=O)C(C)(C)Oc1ccc(C(=O)c2ccc(Cl)cc2)cc1 [FENOFIBRATE] | Compound metabolized | Compound metabolized | Compound NOT metabolized | Compound metabolized | Compound metabolized | Compound NOT metabolized | Compound metabolized | Compound NOT metabolized | Compound metabolized
O=C1NCC2(CCN(CCc3ccccc3)CC2)O1 [FENSPIRIDE] | Compound NOT metabolized | Compound NOT metabolized | Compound NOT metabolized | Compound NOT metabolized | Compound NOT metabolized | Compound NOT metabolized | Compound NOT metabolized | Compound NOT metabolized | Compound NOT metabolized
OC(Cn1cncn1)(Cn1cncn1)c1ccc(F)cc1F [FLUCONAZOLE] | Compound metabolized | Compound metabolized | Compound NOT metabolized | Compound NOT metabolized | Compound NOT metabolized | Compound NOT metabolized | Compound metabolized | Compound NOT metabolized | Compound NOT metabolized
CNCCC(Oc1ccc(C(F)(F)F)cc1)c1ccccc1 (stereo unspecified) [FLUOXETINE] | Compound NOT metabolized | Compound NOT metabolized | Compound NOT metabolized | Compound NOT metabolized | Compound NOT metabolized | Compound NOT metabolized | Compound NOT metabolized | Compound NOT metabolized | Compound NOT metabolized
O=C(CCCN1CCC(O)(c2ccc(Cl)cc2)CC1)c1ccc(F)cc1 [HALOPERIDOL] | Compound metabolized | Compound metabolized | Compound NOT metabolized | Compound NOT metabolized | Compound NOT metabolized | Compound NOT metabolized | Compound metabolized | Compound NOT metabolized | Compound NOT metabolized
CCCCC1=NC2(CCCC2)C(=O)N1Cc1ccc(-c2ccccc2-c2nnn[nH]2)cc1 [IRBESARTAN] | Compound metabolized | Compound metabolized | Compound metabolized | Compound metabolized | Compound NOT metabolized | Compound metabolized | Compound metabolized | Compound metabolized | Compound NOT metabolized
